Assay results taken from PubChem BioAssay AID330 (DTP/NCI, 2004).
Several values for one entry are separate records, joined by “and”; a condition that tells them apart may be missing. Equal values may be shown once. Toxic doses and inconclusive results are not listed. How the source made its calls: active means survival T/C of 150% or more; inactive means T/C below 125% in these data.

Test system: P388 leukemia ip, CD2F1 mice, survival T/C
Test: NCI In Vivo Anticancer Drug Screen. Data for tumor model P388 Leukemia (intraperitoneal) in CD2F1 (CDF1) mice
Conditions: endpoint: median survival time, higher = longer survival
In short: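 Mice carrying the transplanted tumor received test compound or vehicle. Survival was recorded in each group, and the value is the treated-group measurement divided by that of the vehicle-treated control group.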

[1] = dose: 60.0 mg/kg/injection, schedule: Q01DX005 (ip), vehicle: Klucel (hydroxypropylcellulose) (HPC)
[2] = dose: 120.0 mg/kg/injection, schedule: Q01DX005 (ip), vehicle: Klucel (hydroxypropylcellulose) (HPC)
[3] = dose: 240.0 mg/kg/injection, schedule: Q01DX005 (ip), vehicle: Klucel (hydroxypropylcellulose) (HPC)
[4] = dose: 50.0 mg/kg/injection, schedule: Q01DX009 (ip), vehicle: Klucel (hydroxypropylcellulose) (HPC)
[5] = dose: 100.0 mg/kg/injection, schedule: Q01DX009 (ip), vehicle: Klucel (hydroxypropylcellulose) (HPC)
[6] = dose: 200.0 mg/kg/injection, schedule: Q01DX009 (ip), vehicle: Klucel (hydroxypropylcellulose) (HPC)
[7] = dose: 50.0 mg/kg/injection, schedule: Q01DX009 (ip), vehicle: saline
[8] = dose: 100.0 mg/kg/injection, schedule: Q01DX009 (ip), vehicle: saline
[9] = dose: 200.0 mg/kg/injection, schedule: Q01DX009 (ip), vehicle: saline
[10] = dose: 50.0 mg/kg/injection, schedule: Q01DX009 (ip), vehicle: saline with Tween-80
[11] = dose: 100.0 mg/kg/injection, schedule: Q01DX009 (ip), vehicle: saline with Tween-80
[12] = dose: 200.0 mg/kg/injection, schedule: Q01DX009 (ip), vehicle: saline with Tween-80
[13] = dose: 25.0 mg/kg/injection, schedule: Q01DX005 (ip), vehicle: saline
[14] = dose: 50.0 mg/kg/injection, schedule: Q01DX005 (ip), vehicle: saline with Tween-80
[15] = dose: 50.0 mg/kg/injection, schedule: Q01DX005 (ip), vehicle: saline
[16] = dose: 100.0 mg/kg/injection, schedule: Q01DX005 (ip), vehicle: saline with Tween-80
[17] = dose: 200.0 mg/kg/injection, schedule: Q01DX005 (ip), vehicle: saline with Tween-80
[18] = dose: 12.5 mg/kg/injection, schedule: Q01DX009 (ip), vehicle: saline
[19] = dose: 50.0 mg/kg/injection, schedule: Q04DX003 (ip), vehicle: saline with Tween-80
[20] = dose: 100.0 mg/kg/injection, schedule: Q04DX003 (ip), vehicle: saline with Tween-80
[21] = dose: 25.0 mg/kg/injection, schedule: Q04DX003 (ip), vehicle: saline with Tween-80

Measured: T/C

c1ccc(N2CN(c3ccccc3)C2)cc1
inactive: [1] 88 % of control | [2] 86 % of control | [3] 88 % of control

Clc1ccc(-c2nc3ccccc3nc2-c2ccc(Cl)cc2)cc1
inactive: [4] 101 % of control | [5] 111 % of control | [6] 106 % of control

COc1cc2cnc(-c3ccc(Cl)c(Cl)c3)c(O)c2cc1OC
inactive: [7] 90 % of control | [8] 102 % of control | [9] 90 % of control

C[Si]1(C)N[Si](C)(C)N[Si](C)(C)N1
inactive: [10] 103 % of control | [11] 95 % of control | [12] 108 % of control

CN(C)c1nc(NO)nc(N(C)C)n1
inactive: [10] 103 % of control | [11] 107 % of control | [12] 112 % of control

Cc1ncc([N+](=O)[O-])n1CCOC(N)=O
inactive: [4] 100 % of control | [5] 99 % of control | [6] 99 % of control

N=c1c2ncn(C3OC(CO)C(O)C3O)c2ncn1O (configuration not stated)
inactive: dose: 6.25 mg/kg/injection, schedule: Q01DX005 (ip), vehicle: saline 97 % of control | dose: 12.5 mg/kg/injection, schedule: Q01DX005 (ip), vehicle: saline 101 % of control | [13] 101 % of control and 112 % of control | [14] 105 % of control | [15] 112 % of control and 94 % of control | [16] 100 % of control | [17] 108 % of control

CC1CC(c2ccc3ccccc3c2)NCCNC(c2ccc3ccccc3c2)CC(C)NCCN1 (configuration not stated)
inactive: dose: 0.09 mg/kg/injection, schedule: Q01DX009 (ip), vehicle: saline 100 % of control | dose: 0.18 mg/kg/injection, schedule: Q01DX009 (ip), vehicle: saline 103 % of control | dose: 0.36 mg/kg/injection, schedule: Q01DX009 (ip), vehicle: saline 102 % of control | dose: 3.12 mg/kg/injection, schedule: Q01DX009 (ip), vehicle: saline 101 % of control | [18] 101 % of control

CC(=O)Nc1ccc(OCCOC(=O)Nc2ccc(C)cc2[N+](=O)[O-])cc1
inactive: [4] 88 % of control

C[N+]1(CCC(=O)c2ccccc2)CCCCC1
inactive: [18] 97 % of control | dose: 25.0 mg/kg/injection, schedule: Q01DX009 (ip), vehicle: saline 107 % of control

CC1=NCCN=C(C)C1[N+](=O)[O-]
inactive: [7] 91 % of control | [8] 87 % of control

CC(C)C(CC(=O)O)C(=O)O (configuration not stated)
inactive: [14] 100 % of control | [16] 91 % of control | [17] 104 % of control

CC1=NN(C(=O)c2ccccc2)C(=O)C1N=Nc1ccc(Cl)cc1 (configuration not stated)
inactive: dose: 100.0 mg/kg/injection, schedule: Q01DX001 (ip), vehicle: saline with Tween-80 94 % of control | dose: 200.0 mg/kg/injection, schedule: Q01DX001 (ip), vehicle: saline with Tween-80 94 % of control | dose: 400.0 mg/kg/injection, schedule: Q01DX001 (ip), vehicle: saline with Tween-80 88 % of control

FC(F)(F)c1ccc2nc3c4ccccc4c4ccccc4c3nc2c1
inactive: [7] 116 % of control | [8] 107 % of control | [9] 101 % of control

CC(=O)CC(C)=O.CC(=O)CC(C)=O.[Cl][Sn][c]1ccccc1
inactive: [13] 109 % of control and 116 % of control | [15] 110 % of control and 122 % of control | dose: 100.0 mg/kg/injection, schedule: Q01DX005 (ip), vehicle: saline 109 % of control and 115 % of control | dose: 200.0 mg/kg/injection, schedule: Q01DX005 (ip), vehicle: saline 107 % of control and 111 % of control and 113 % of control

C=CC[n+]1cc2c3ccccc3c(N)cc2c2ccccc21
inactive: dose: 1.56 mg/kg/injection, schedule: Q04DX003 (ip), vehicle: water 107 % of control | dose: 3.13 mg/kg/injection, schedule: Q04DX003 (ip), vehicle: water 116 % of control | dose: 6.25 mg/kg/injection, schedule: Q04DX003 (ip), vehicle: water 114 % of control | dose: 12.5 mg/kg/injection, schedule: Q04DX003 (ip), vehicle: other 106 % of control | dose: 12.5 mg/kg/injection, schedule: Q04DX003 (ip), vehicle: water 109 % of control

CNC(=O)On1cc(Cl)cc1C#N
inactive: dose: 50.0 mg/kg/injection, schedule: Q01DX001 (ip), vehicle: Klucel (hydroxypropylcellulose) (HPC) 101 % of control | dose: 100.0 mg/kg/injection, schedule: Q01DX001 (ip), vehicle: Klucel (hydroxypropylcellulose) (HPC) 118 % of control

N#C/C(=C(/N)N1CCOCC1)N1CCOCC1
inactive: [1] 100 % of control | [2] 95 % of control | [3] 98 % of control

COc1ccccc1/C=N/Nc1ccc2ccccc2n1
inactive: [19] 93 % of control | [20] 90 % of control | dose: 200.0 mg/kg/injection, schedule: Q04DX003 (ip), vehicle: saline with Tween-80 90 % of control

CCOC(=O)c1sc(SSc2sc(C(=O)OCC)c(-c3ccccc3)c2[N+](=O)[O-])c([N+](=O)[O-])c1-c1ccccc1
inactive: dose: 100.0 mg/kg/injection, schedule: Q04DX002 (ip), vehicle: saline with Tween-80 104 % of control | dose: 200.0 mg/kg/injection, schedule: Q04DX002 (ip), vehicle: saline with Tween-80 107 % of control | dose: 400.0 mg/kg/injection, schedule: Q04DX002 (ip), vehicle: saline with Tween-80 118 % of control

C[C@]12CC[C@H](O)C[C@@H]1CC[C@@H]1[C@@H]2C(=O)C[C@]2(C)C3=CC(=O)O[C@H]3C[C@@H]12
inactive: dose: 25.0 mg/kg/injection, schedule: Q01DX009 (ip), vehicle: saline with Tween-80 109 % of control | [21] 117 % of control | [10] 118 % of control | [19] 104 % of control | [11] 86 % of control | [20] 113 % of control and 95 % of control

CN(C)C(C)(C)P(=O)(O)O
inactive: [11] 100 % of control | [12] 100 % of control | dose: 400.0 mg/kg/injection, schedule: Q01DX009 (ip), vehicle: saline with Tween-80 100 % of control

Cc1ccc2cccc([N+](=O)[O-])c2n1
inactive: dose: 12.5 mg/kg/injection, schedule: Q04DX003 (ip), vehicle: saline with Tween-80 100 % of control | [21] 104 % of control | [19] 95 % of control

CCC[CH2][Sn]([CH2]CCC)([NH]c1ncnc2[nH]cnc12)[NH]c1ncnc2[nH]cnc12
inactive: dose: 1.56 mg/kg/injection, schedule: Q01DX005 (ip), vehicle: Klucel (hydroxypropylcellulose) (HPC) 98 % of control | dose: 3.12 mg/kg/injection, schedule: Q01DX005 (ip), vehicle: Klucel (hydroxypropylcellulose) (HPC) 110 % of control | dose: 6.25 mg/kg/injection, schedule: Q01DX005 (ip), vehicle: Klucel (hydroxypropylcellulose) (HPC) 121 % of control

CC1OC(O[C@H]2/C=C/C=C/C=C/C=C/C=C/C=C/C=C/[C@H](C)[C@@H](O)[C@@H](C)[C@H](C)OC(=O)C[C@H](O)C[C@H](O)CC[C@@H](O)[C@H](O)C[C@H](O)C[C@]3(O)C[C@H](O)[C@@H](C(=O)O)[C@H](C2)O3)C(O)C(N)C1O (some centres not stated)
inactive: dose: 1.0 mg/kg/injection, schedule: Q01DX009 (ip), vehicle: saline 90 % of control and 95 % of control | dose: 2.0 mg/kg/injection, schedule: Q01DX009 (ip), vehicle: saline 119 % of control and 90 % of control | dose: 4.0 mg/kg/injection, schedule: Q01DX009 (ip), vehicle: saline 98 % of control and 102 % of control and 105 % of control | dose: 8.0 mg/kg/injection, schedule: Q01DX009 (ip), vehicle: saline 100 % of control and 106 % of control and 87 % of control | dose: 16.0 mg/kg/injection, schedule: Q01DX009 (ip), vehicle: saline 122 % of control and 94 % of control

CCCCCCCCCCCCCCCC[N+](C)(C)CCNC(=O)c1ccccc1
inactive: dose: 3.12 mg/kg/injection, schedule: Q01DX009 (ip), vehicle: water 101 % of control | dose: 6.25 mg/kg/injection, schedule: Q01DX009 (ip), vehicle: water 106 % of control | dose: 12.5 mg/kg/injection, schedule: Q01DX009 (ip), vehicle: water 99 % of control and 101 % of control
